Laboratory results reported in patent publication US12503483B2, “Gemcitabine amphiphile prodrugs” (NANOMED HOLDINGS PTY LTD, priority 2018, dated 2025).
Read-outs that look alike come from different tables or passages of the source.

Key:
[1] = system: Carboxylesterase from porcine liver; experiment: In-situ enzymatic bioconversion of prodrug nanoparticles (LC/MS); type: in vitro ADME; details: DMPC/cholesterol nanoparticles, 50 uM prodrug, 33.7 units/mL, 37° C.; for Bioconversion to Gemcitabine: FIG. 7b
Procedure: Nanoparticle dispersions of a mixture of Dimyristoylphosphatidylcholine and cholesterol with either (i) Gemcitabine-Phytanyl, (ii) Gemcitabine-PEG3-oleoyl or (iii) Gemcitabine-PEG3-oleoylamide were made at […] concentration of Gemcitabine prodrugs. Carboxylesterase solution from porcine liver obtained from Sigma-Aldrich was added to the nanoparticle dispersions, and the enzyme concentration in each respective nanoparticle dispersion was set to 33.7 units/mL.
The time at which the enzyme solution was added was taken as time zero for the hydrolysis reaction. The mixture was maintained at 37° C. throughout the experiment. The concentration of the hydrolysis product was measured at various time intervals using LC/MS and LC/MS^2 for the detection of prodrug converted to the active drug Gemcitabine. The time at which the sample was injected into the LC column was taken to be the reaction time for such sample. The hydrolysis progress curve, showing the decrease in the concentration of original substrate was plotted against time, whereas the bioconversion to Gemcitabine was determined by MS^2 methods. Standard curves for both prodrugs and the active bioconverted gemcitabine was assessed by using standard samples.
Thermo Finnigan (Finnigan LCQ Series, Thermo Scientific, USA) LC/MS equipped with an electron spray ionization (ESI) was used to assess the enzymatic reaction using both MS and MS^2 mode. The prodrug depletion was detected by negative ion for MS. The conversion of the prodrug to the Gemcitabine was detected by MS^2 at 112.1. 10 μl of sample withdrawn from the reaction solution was injected directly into a Phenomenex C8 150 mm×2 mm 5 uLuna column (Phenomenex, Australia). A 100% Methanol solution was used as mobile phase with the flow rate of 0.5 ml/min. The sample after the column separation was eluted to ESI source. The capillary temperature and ion spray voltage were set at 350° C. and 4.60 respectively. The sample temperature was well maintained at 37° C. during the entire measurement by incubating the samples in the temperature controlled auto-sampler. Data were acquired and processed with Xcalibur Quan chromatography software.
The decreased prodrug was calculated as the percentage of the area under the peak of Gemcitabine-prodrug compared to that before addition of the enzyme. The amount of Gemcitabine produced, was calculated from the area under the peak at 3.4 min related to Gemcitabine at 263 and its MS^2 at 112.1.

[2] = Water penetration scan by polarized optical microscopy (POM); type: physicochemical; details: for Appearance of the Lyotropic phase at excess water (25° C.-50° C.): POM, equilibration 1 h; for Lyotropic phase formed in water penetration scan: neat amphiphile to pure water gradient, temperature as worded
Procedure: Polarized Optical Microscopy (POM): Samples used for Polarized Optical Microscopy (POM) were prepared by placing a small amount of prodrug amphiphile on a microscope slide and covered with a cover slip. Water was placed on the edges of the cover slip and allowed to flow into the sample by capillary action. The microscope slide was placed in a Linkam PE94 hot stage (Linkam Scientific Instruments Ltd. Surrey, England) and heated at 3° C./min between room temperature and 50° C. […] Images were captured with a Nikon DS-Ri-1 camera. All images were taken at 100× magnification.
(§1) The results of the water penetration scans and SAXS are summarised in Tables 1 and 2 and indicate that various self-assembled lyotropic liquid crystalline phases were formed for the different Gem apmphiphiles, with a broad range of mesophases from lamellar crystalline structure to lamellar liquid crystalline, cubic mesophases and sponge mesophases.
The textures obtained from water penetration scans along the established concentration gradient from neat amphiphile to pure water provide a quick insight into the lyotropic phase behaviour of a surfactant/water system. Melted neat amphiphile was placed on a microscopic slide and water was then introduced around the edge.

[3] = SAXS phase behaviour of hydrated Gem amphiphiles; type: physicochemical; details: equilibration 48 h
Procedure: SAXS analyses of the bulk and lyotropic phases of the amphiphiles were performed on a Bruker NanoSTAR laboratory SAXS instrument (Brucker AXS, Kalsruhe, Germany).
The equilibrated lyotropic phases were placed into a demountable button sample cells. For the analysis of the dispersions, a multi-capillary holder was used. Button cells and capillary holder interchangeably fit into a block setup that was temperature-controlled with a Peltier heater-cooler system. 2D scattering images were radially averaged to conventional 1 D scattering plots and as a function of the q value (Å-1) where q is the length of the scattering vector which was calculated using the formula q=(4π/λ)sin(θ/2), where A is the wavelength and 6 is the scattering angle.
The mesophases formed were determined by indexing peaks using the reflection laws as described by De Campo et al., Langmuir, 2004. 20(13), 5254-5261. Small angle X-ray scattering patterns of emulsions and liposomes display large broad peaks while liquid crystalline phases of highly ordered nanostructured particles such as cubosomes and hexosomes display distinct sharp peaks. The relative positions of the peaks (“spacing”) allows for the elucidation of the symmetry of the structure. The interplanar distance (d) between two reflecting planes may be calculated using the formula d=(2π)/q, where q is the absolute position of the peak. This, in turn allows for the calculation of the lattice parameter (a), the size of the unit cell, to be calculated.
as §1

[4] = system: CFPAC-1 cell line-derived xenograft; experiment: In vivo tumour inhibition, CFPAC-1 xenograft; design: species or system mice
Procedure: All treatments were administered via IV injection twice a week for four weeks. The amount of gemcitabine administered in the Gem nanoparticles was 4.45 mg/kg, which is an order of magnitude less than the ordinary dose used in clinic. The doses were equimolar with the gemcitabine control group in order to allow for a direct comparison of the anti-tumour efficacy between groups. The amount of total lipid injected was 1 mg/dose. Gemcitabine is administered intravenously at a dose of 1000 mg/m2 to treat pancreatic cancer in humans. The dose administered here is equivalent to 13.35 mg/m2 of gemcitabine being injected into humans; 1.33% of the clinical dose of gemcitabine in humans. In other studies, the amount of gemcitabine injected into mice in vivo studies has ranged from 7-100 mg/kg.
At the end of the study, the tumours were harvested.

[5] = system: CFPAC-1 cell line; details: 72 hours; read-out: IC50 of gemcitabine against the CFPAC-1 cell line; cited from earlier work
[6] = system: BxPC3 cell line; experiment: MTS cytotoxicity assay, 72 hours; type: cell-based; details: Homo sapiens, BXPC-3, BxPC3, 72 hours
Procedure: (§2) The cytotoxicity of gemcitabine nanoparticles dispersion made from gemcitabine amphiphiles in the presence or absence of DMPC-cholesterol was evaluated in comparison to gemcitabine alone in several pancreatic cell lines including CF Pac-1, BxPC3, Panc-1 and MIA PaCa-2, MCF7and CACO2 cell lines. The cell lines were exposed to media with varying concentrations of the treatments (100-0.001 μM) and incubated for 72 hours. Cell viability was determined using the MTS assay and was conducted in triplicate to derive the IC50 values.

[7] = system: PANC-1 cell line; experiment: MTS cytotoxicity assay, 72 hours; type: cell-based; details: Homo sapiens, PANC-1, 72 hours
Procedure: as §2

[8] = system: MCF7 cell line; experiment: MTS cytotoxicity assay, 72 hours; type: cell-based; details: MCF7, 72 hours, prodrugs as nanoparticle dispersions
Procedure: as §2

[9] = system: CACO2 cell line; experiment: MTS cytotoxicity assay, 72 hours; type: cell-based; details: prodrugs as nanoparticle dispersions
Procedure: as §2

[10] = system: CFPAC-1 cell line; experiment: MTS cytotoxicity assay, 72 hours; type: cell-based; details: CFPAC-1, 72 hours, prodrugs as nanoparticle dispersions
Procedure: as §2

[11] = system: MIAPaCa-2 cell line; experiment: MTS cytotoxicity assay, 72 hours; type: cell-based; details: Homo sapiens, MIA PaCa-2, MIAPaCa-2, 72 hours
Procedure: as §2

Compound	Prodrug reduction (hydrolysis) by CES enzyme [1]	Appearance of the Lyotropic phase at excess water (25° C.-50° C.) [2]	Lyotropic phase ([3]; 25° C.)	Lyotropic phase lattice parameter ([3]; 25° C.) [Å]	Lyotropic phase ([3]; 37° C.)	Lyotropic phase lattice parameter ([3]; 37° C.) [Å]	also measured
CC(C)CCCC(C)CCCC(C)CCCC(C)CCOC(=O)Nc1ccn([C@@H]2O[C@H](CO)[C@@H](O)C2(F)F)c(=O)n1 (stereo partly shown) [Gem-Phy, 2′-deoxy-2′,2′-difluoro-N4-(((3,7,11,15-tetramethyl-hexadecyl)oxy)carbonyl) cytidine]	slowest prodrug to reduce completely	An isotropic band	Ia3d	135.8 ± 0.5	Ia3d	135.8 ± 0.5	Lyotropic phase formed in water penetration scan [2]: 3D inversed bicontinous cubic phase (Pn3m space group) initially and then transform to 2D hexagonal phase
CC/C=C\C/C=C\C/C=C\CCCCCCCC(=O)OCCOCCOCCOCCOCCOCCOC(=O)Nc1ccn([C@@H]2O[C@H](CO)[C@@H](O)C2(F)F)c(=O)n1 (relative stereo) [Gem-PEG6-linolenoyl, 2′-deoxy-2′,2′-difluoro-N4-((((cis-9, 12, 15 octadecatrienoyl)-oxy-hexaethyleneglycol)oxy)carbonyl) cytidine]	–	Emulsion	Sponge phase (L3)	–	–	–	–
CCCCCCCC/C=C\CCCCCCCCOC(=O)Nc1ccn([C@@H]2O[C@H](CO)[C@@H](O)C2(F)F)c(=O)n1 (relative stereo) [Gem-Ole, 2′-deoxy-2′,2′-difluoro-N4-(((cis-9, octadecenyl)oxy)carbonyl) cytidine]	–	Anisotropic band	–	–	–	–	Lyotropic phase formed in water penetration scan [2]: traditional lamellar (La) phase at room temperature and 3D cubic (Pn3m) phase at elevated temperatures above 33 °C
Nc1ccn([C@@H]2O[C@H](CO)[C@@H](O)C2(F)F)c(=O)n1 [Gemcitabine, 2′,2′-difluoro-2′-deoxycytidine]	–	–	–	–	–	–	Tumour size trend over time ([4]; 4.45 mg/kg gemcitabine equimolar, IV twice a week for four weeks): increased in size, however at a slower rate compared with the control PBS group; Tumour volume as % of control tumour size ([4]; 4.45 mg/kg gemcitabine equimolar, IV twice a week for four weeks, 34 days): 54%; Average ex-vivo tumour weight, order of groups ([4]; end of study, control vs nanoparticles p<0.05): control group>Gemcitabine group>Gemcitabine nanoparticles; IC50 [5]: 6.1 to 33 nM; IC50 [6]: 22.5 nM; IC50 [7]: > 100000 nM; IC50 ([8]; Homo sapiens): 6 nM; IC50 ([9]; Homo sapiens, Caco-2, CACO2, 72 hours): 50 nM; IC50 ([10]; Homo sapiens): 65 nM; IC50 [11]: 23 nM
CCCCCCCC/C=C\CCCCCCCC(=O)OCCOCCOCCOCCOCCOCCOC(=O)Nc1ccn([C@@H]2O[C@H](CO)[C@@H](O)C2(F)F)c(=O)n1 (relative stereo) [Gem-PEG6-oleoyl, 2′-deoxy-2′,2′-difluoro-N4-((((cis-9, octadecenoyl)-oxy-hexaethyleneglycol)oxy)carbonyl) cytidine]	–	An isotropic band, cubic phase	Ia3d	125.2 ± 0.5	Ia3d	124.4 ± 0.5	–
CCCCCCCC/C=C\CCCCCCCC(=O)NCCOCCOCCOC(=O)Nc1ccn([C@@H]2O[C@H](CO)[C@@H](O)C2(F)F)c(=O)n1 (relative stereo) [Gem-PEG3-oleoylamide, 2′-deoxy-2′,2′-difluoro-N4-((((cis-9, octadecenoyl)amino-triethyleneglycol)oxy)carbonyl) cytidine]	reduced at a lower rate	–	–	–	–	–	Time of prodrug reduction ([1]; FIG. 7a): 6 h; Bioconversion to Gemcitabine [1]: produced Gemcitabine sustainably
CCCCC/C=C\C/C=C\CCCCCCCC(=O)OCCOCCOCCOC(=O)Nc1ccn([C@@H]2O[C@H](CO)[C@@H](O)C2(F)F)c(=O)n1 (relative stereo) [Gem-PEG3-linoleoyl, 2′-deoxy-2′,2′-difluoro-N4-((((cis-9, cis-12-octadecadienoyl)-oxy-triethyleneglycol)oxy)carbonyl) cytidine]	–	An isotropic band, emulsion	Sponge phase (L3)	–	Sponge phase (L3)	–	IC50 [8]: 100 nM; IC50 ([9]; CACO2, 72 hours): 200 nM; IC50 [10]: 583 nM
CCCCC/C=C\C/C=C\CCCCCCCCOC(=O)Nc1ccn([C@@H]2O[C@H](CO)[C@@H](O)C2(F)F)c(=O)n1 (relative stereo) [Gem-Lin, 2′-deoxy-2′,2′-difluoro-N4-(((cis-9,12,octadecadienenyl)oxy)carbonyl) cytidine]	–	A birefringent band (LC)	–	53.2 ± 0.5	–	53.2 ± 0.5	–
CCCCCCCC/C=C\CCCCCCCC(=O)OCCOCCOCCOC(=O)Nc1ccn([C@@H]2O[C@H](CO)[C@@H](O)C2(F)F)c(=O)n1 (relative stereo) [Gem-PEG3-oleoyl, 2′-deoxy-2′,2′-difluoro-N4-((((cis-9, octadecenoyl)oxy-triethyleneglycol)oxy)carbonyl) cytidine]	reduced to Gem-PEG3 and the oleic acid quickly	Birefringent ( lamellar)	–	55.26 ± 0.5	–	55.26 ± 0.5	Bioconversion to Gemcitabine [1]: bioconverted Gemcitabine very slowly
